Reference: patent publication US11667643B2, “RIP1K inhibitors” (priority 2020, dated 2023)
Read-outs that look alike come from different tables or passages of the source.

Legend:
U937 cells = test: U937 cell necroptosis assay (TNFa + zVAD, CellTiter-Glo recovery), functional human RIP1 assay; format: cell-based
Experimental: (§1) In this example, U937 and L929 cells were exposed to compounds of the present disclosure and a cell necroptosis assay was conducted to evaluate compound activity in functional human RIP1 and murine RIP1 assays.
(§2) U937 and L929 cells were obtained from the American Type Culture Collection (Manassa, Va., USA). Both cells were maintained in logarithmic growth phase in complete RPMI 1640 media (Sigma, ST Louis, Mo., USA) supplemented with 10% fetal bovine serum (Sigma, ST Louis, Mo., USA) at 37° C. with 5% CO2. For necroptosis assay, L929 cells were plated for 18 h in 100 μL/well medium at 10K cells/well in Costar 96-well black clear-bottom plates (Fisher Scientific, Hampton, N.H., USA); U937 cells were plated on the day of the assay in 50 μL/well medium containing 60 uM zVAD-fmk (Lonza, Basel, Switzerland) at 50K cells/well. Medium from L929 cells were removed from the 96-well plates and replaced with 50 μL/well new medium containing 40 uM zVAD-fmk. Each compound of the present disclosure evaluated in this example was serially diluted in DMSO from 2.5 mM in 4-fold dilutions, and then diluted 1:125 in complete medium. 50 μL/well 2× of the compound was then added to the cells in the plates. The cells were pre-incubated with the compound for 1 hour at 37° C. with 5% CO2 and before addition of 10 μL/well 11×TNFa (Peprotech, Rocky Hill, N.J., USA) to give a final concentration of 2 ng/mL for TNFa. The relative amount of necroptosis cells was determined by luminescent using a Wallac Victor2 Luminometer (PerkinElmer, Waltham, Mass., USA) and a CellTiter-Glo® Luminescent Cell Viability Reagent Assay (Promega, Madison, Wis., USA) added per manufacturer instructions after 18 hours of TNFa stimulation at 37° C. with 5% CO2. This example establishes that embodiments of the compounds described herein have unexpectedly potent activity against human RIP1 and murine RIP1, which allows their assessment in in vivo mouse models of disease.

L929 cells = test: L929 cell necroptosis assay (TNFa + zVAD, CellTiter-Glo recovery), functional murine RIP1 assay; format: cell-based
Experimental: as §1, §2

RIPK1 = RIPK1 (Homo sapiens (Human), UniProt Q13546); test: biochemical; format: biochemical; details: RIPK1 enzyme 31 ng/well, 30° C. for 30 minutes, luminescence; read-out: RIPK1 ADP-Glo Kinase (IC50)
Experimental: In this example, compounds of the disclosure were evaluated using a biochemical assay using the ADP-Glo™ technology.
ADP-Glo™ (Promega, Madison, Wis., USA) reagents were thawed at ambient temperature. Kinase Detection Reagent was prepared by mixing kinase detection buffer with the lyophilized kinase detection substrate.
A […] stock volume of 5× Reaction Kinase Buffer was made by mixing 1000 μl of 1M MgCl2, 500 μl of 1M Tris-HCL pH7.4, 0.5 mg/ml (25 mg) of BSA, and 3475 μl of distilled H2O. A 3 ml 2× working stock volume of Reaction Kinase Buffer was made containing a final concentration of 100 μM DTT and 4 mM MnCl2.
Components of RIPK1 enzyme (Rigel Pharmaceuticals, South San Francisco, Calif., USA) were thawed on ice. Diluted RIPK1 was prepared in 1× Kinase Reaction Buffer (diluted from 2× buffer) to 31 ng/well.
1.0 ul of diluted compound was added to a 384 well plate in duplicate. […] The final reaction volume was 5.0 μl. The plate was quickly centrifuged and the reaction was incubated at 30° C. for 30 minutes. Adding 5 μl of ADP-Glo™ terminated the reaction. The plate was quickly centrifuged and the reaction was incubated at room temperature for 40 minutes. Kinase Detection Reagent was then added and incubated at room temperature for 30 minutes. The relative light unit (RLU) of kinase reaction was determined by luminescent (Luminescence 0.1 s) using a Wallac Victor2 Luminometer (PerkinElmer, Waltham, Mass., USA).

[1] = Homo sapiens, U-937, 18 h, read-out: U937 Zvad TNF CTG Recovery, U937, TNFa + zVAD (IC50), U937 cells, zVAD-fmk, TNFa 2 ng/mL, 18 hours, CellTiter-Glo
[2] = Mus musculus, L929, 18 h, read-out: L929-CTG-recovery, L929, TNFa + zVAD (IC50), L929 cells, zVAD-fmk, TNFa 2 ng/mL, 18 hours, CellTiter-Glo
[3] = read-out: U937 Zvad TNF CTG Recovery, U937, TNFa + zVAD (IC50), U937 cells, zVAD-fmk, TNFa 2 ng/mL, 18 hours, CellTiter-Glo
[4] = read-out: L929-CTG-recovery, L929, TNFa + zVAD (IC50), L929 cells, zVAD-fmk, TNFa 2 ng/mL, 18 hours, CellTiter-Glo

Sequence of RIPK1 (Q13546 whole entry, species assumed): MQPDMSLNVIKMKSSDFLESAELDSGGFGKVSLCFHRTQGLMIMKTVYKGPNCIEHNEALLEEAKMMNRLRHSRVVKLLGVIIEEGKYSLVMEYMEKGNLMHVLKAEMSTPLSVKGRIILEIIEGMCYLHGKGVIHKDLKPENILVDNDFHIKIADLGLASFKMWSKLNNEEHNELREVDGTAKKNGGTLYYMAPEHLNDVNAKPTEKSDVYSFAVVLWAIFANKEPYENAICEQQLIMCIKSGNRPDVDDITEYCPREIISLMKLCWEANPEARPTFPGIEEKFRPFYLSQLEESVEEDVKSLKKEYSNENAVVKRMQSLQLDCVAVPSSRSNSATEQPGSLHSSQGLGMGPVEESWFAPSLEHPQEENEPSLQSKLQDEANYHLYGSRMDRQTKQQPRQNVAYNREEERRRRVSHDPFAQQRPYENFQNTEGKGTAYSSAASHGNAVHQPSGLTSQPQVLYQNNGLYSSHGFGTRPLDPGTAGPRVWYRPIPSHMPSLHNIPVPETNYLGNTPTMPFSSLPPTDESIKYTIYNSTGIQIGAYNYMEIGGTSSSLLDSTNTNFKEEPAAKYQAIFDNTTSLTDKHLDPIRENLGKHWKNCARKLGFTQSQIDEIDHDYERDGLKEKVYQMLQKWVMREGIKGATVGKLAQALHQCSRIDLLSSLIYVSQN

Row | SMILES | IC50 (U937 cells; [1]) | IC50 (L929 cells; [2]) | IC50 (RIPK1) | IC50 (U937 cells; [3]) | IC50 (L929 cells; [4])
1 | O=C(NC1CCc2ccccc2-n2ccnc21)c1n[nH]c(Cc2ccccc2)n1 (racemic) [Compound I-1, (±)-5-Benzyl-N-(5,6-dihydro-4H-benzo[f]imidazo[1,2-a]azepin-4-yl)-1H-1,2,4-triazole-3-carboxamide] | 0.376 µM | 10000 µM |  |  | 
2 | O=C(NC1CCc2ccccc2-n2ccnc21)c1nccc(-c2ccccc2)n1 (racemic) [Compound I-2, (±)-N-(5,6-Dihydro-4H-benzo[f]imidazo[1,2-a]azepin-4-yl)-4-phenylpyrimidine-2-carboxamide] | 40.3 µM | 10000 µM | 6.23 µM |  | 
3 | O=C(NC1CCc2ccccc2-n2ccnc21)c1ncnn1Cc1c(Cl)cccc1Cl (racemic) [Compound I-6, (±)-1-(2,6-Dichlorobenzyl)-N-(5,6-dihydro-4H-benzo[f]imidazo[1,2-a]azepin-4-yl)-1H-1,2,4-triazole-5-carboxamide] | 885 µM | 10000 µM |  |  | 
4 | O=C(NC1CCc2ccccc2-n2ccnc21)c1ncn(Cc2c(Cl)cccc2Cl)n1 (racemic) [Compound I-7, (±)-1-(2,6-dichlorobenzyl)-N-(5,6-dihydro-4H-benzo[f]imidazo[1,2-a]azepin-4-yl)-1H-1,2,4-triazole-3-carboxamide] | 0.0137 µM | 12.7 µM |  |  | 
5 | O=C(NC1CCc2ccccc2-n2ccnc21)c1cc(Cc2ccccc2)on1 (racemic) [Compound I-9, (±)-5-Benzyl-N-(5,6-dihydro-4H-benzo[f]imidazo[1,2-a]azepin-4-yl)isoxazole-3-carboxamide] | 0.222 µM | 10000 µM | 0.0261 µM |  | 
6 | O=C(NC1CCc2ccccc2-n2ccnc21)c1ncn(Cc2ccccc2F)n1 (racemic) [Compound I-14, (±)-N-(5,6-Dihydro-4H-benzo[f]imidazo[1,2-a]azepin-4-yl)-1-(2-fluorobenzyl)-1H-1,2,4-triazole-3-carboxamide] | 0.0066 µM | 2.34 µM | 0.0166 µM |  | 
7 | O=C(NC1CCc2ccccc2-n2ccnc21)c1n[nH]c(Cc2c(Cl)cccc2Cl)n1 (racemic) [Compound I-19, (±)-5-(2,6-Dichlorobenzyl)-N-(5,6-dihydro-4H-benzo[f]imidazo[1,2-a]azepin-4-yl)-1H-1,2,4-triazole-3-carboxamide] | 0.96 µM | 10000 µM | 0.393 µM |  | 
8 | O=C(NC1COc2ccccc2-n2cccc21)c1ncn(Cc2c(Cl)cccc2Cl)n1 (racemic) [Compound I-27, (±)-1-(2,6-Dichlorobenzyl)-N-(6,7-dihydrobenzo[b]pyrrolo[1,2-d][1,4]oxazepin-7-yl)-1H-1,2,4-triazole-3-carboxamide] | 0.034 µM | 5.55 µM | 0.0684 µM |  | 
9 | Cc1cnc2n1-c1ccccc1CCC2NC(=O)c1n[nH]c(Cc2ccccc2)n1 (racemic) [Compound I-40, (±)-5-Benzyl-N-(1-methyl-5,6-dihydro-4H-benzo[f]imidazo[1,2-a]azepin-4-yl)-1H-1,2,4-triazole-3-carboxamide] | 10000 µM | 10000 µM |  |  | 
10 | CC(C)(O)C#Cc1ccc2c(c1)-n1ccnc1C(NC(=O)c1n[nH]c(Cc3ccccc3)n1)CC2 (racemic) [Compound I-55, (±)-5-Benzyl-N-(9-(3-hydroxy-3-methylbut-1-yn-1-yl)-5,6-dihydro-4H-benzo[f]imidazo[1,2-a]azepin-4-yl)-1H-1,2,4-triazole-3-carboxamide] | 0.0206 µM | 9.5 µM |  |  | 
11 | O=C(NC1CCc2ccccc2-n2c1nc(Cl)c2Cl)c1cc(Cc2ccccc2)on1 (racemic) [Compound I-70, (±)-5-Benzyl-N-(1,2-dichloro-5,6-dihydro-4H-benzo[f]imidazo[1,2-a]azepin-4-yl)isoxazole-3-carboxamide] | 73.4 µM | 10000 µM |  |  | 
12 | CC(C)(O)C#Cc1ccc2c(c1)-n1ccnc1C(NC(=O)c1n[nH]c(Cc3ccccc3)n1)CO2 (racemic) [Compound I-90, (±)-5-Benzyl-N-(9-(3-hydroxy-3-methylbut-1-yn-1-yl)-4,5-dihydrobenzo[b]imidazo[1,2-d][1,4]oxazepin-4-yl)-1H-1,2,4-triazole-3-carboxamide] | 0.17 µM | 10000 µM |  |  | 
13 | O=C(NC1CCc2ccccc2-n2ccnc21)c1n[nH]c(Cc2ccccc2)n1 (single isomer, unassigned) [Compound I-4] |  |  |  | 0.203 µM | 10000 µM
14 | O=C(NC1CCc2ccccc2-n2ccnc21)c1n[nH]c(Cc2ccccc2)n1 (single isomer, unassigned) [Compound I-5] |  | 10000 µM |  | 86.6 µM | 
15 | O=C(NC1CCc2ccccc2-n2ccnc21)c1ncn(Cc2c(Cl)cccc2Cl)n1 (single isomer, unassigned) [Compound I-12] |  |  |  | 17 µM | 10000 µM
16 | O=C(NC1CCc2ccccc2-n2ccnc21)c1ncn(Cc2c(Cl)cccc2Cl)n1 (single isomer, unassigned) [Compound I-13] |  |  |  | 0.003 µM | 3.38 µM
17 | CC(C)(O)C#Cc1ccc2c(c1)-n1ccnc1C(NC(=O)c1n[nH]c(Cc3ccccc3)n1)CO2 (single isomer, unassigned) [Compound I-92] | 0.0676 µM | 6 µM |  |  | 
18 | O=C(N[C@H]1COc2ccccc2-n2nnnc21)c1ncnn1Cc1c(Cl)cccc1Cl [Compound I-10, (R)-1-(2,6-Dichlorobenzyl)-N-(4,5-dihydrobenzo[6]tetrazolo[1,5-d][1,4]oxazepin-4-yl)-1H-1,2,4-triazole-5-carboxamide] | 5020 µM | 10000 µM |  |  | 
19 | Cc1cccc(C)c1Cn1cnc(C(=O)N[C@H]2COc3ccccc3-n3nnnc32)n1 [Compound I-20, (R)—N-(4,5-Dihydrobenzo[&]tetrazolo[1,5-d][1,4]oxazepin-4-yl)-1-(2,6-dimethylbenzyl)-1H-1,2,4-triazole-3-carboxamide] | 1.56 µM |  | 1.87 µM |  | 
20 | CC(C)(O)C#Cc1ccc2c(c1)-n1nnnc1[C@@H](NC(=O)c1cc(O)n(Cc3ccccc3)n1)CO2 [Compound I-76, (R)-1-Benzyl-5-hydroxy-N-(9-(3-hydroxy-3-methylbut-1-yn-1-yl)-4,5-dihydrobenzo[b]tetrazolo[1,5-d][1,4]oxazepin-4-yl)-1H-pyrazole-3-carboxamide] | 10000 µM | 10000 µM |  |  | 
21 | CN1C(=O)[C@@H](N2CCc3c(nn(Cc4ccccc4)c3Cl)C2=O)COc2cc(C#CC(C)(C)O)ccc21 [Compound I-78] | 0.0022 µM | 0.0061 µM |  |  | 
22 | CC(C)(O)C#Cc1ccc2c(c1)-n1ccnc1[C@@H](NC(=O)c1n[nH]c(Cc3ccccc3)n1)CC2 [Compound I-82, (S)-5-Benzyl-N-(9-(3-hydroxy-3-methylbut-1-yn-1-yl)-5,6-dihydro-4H-benzo[f]imidazo[1,2-a]azepin-4-yl)-1H-1,2,4-triazole-3-carboxamide] | 0.0084 µM | 5.29 µM |  |  | 
23 | CC(C)(O)C#Cc1ccc2c(c1)-n1ccnc1[C@H](NC(=O)c1n[nH]c(Cc3ccccc3)n1)CO2 [Compound I-91, (S)-5-Benzyl-N-(9-(3-hydroxy-3-methylbut-1-yn-1-yl)-4,5-dihydrobenzo[b]imidazo[1,2-d][1,4]oxazepin-4-yl)-1H-1,2,4-triazole-3-carboxamide] | 10000 µM | 10000 µM |  |  | 
